Measurements taken from ChEMBL document CHEMBL1201862, “PubChem BioAssay data set” (2004).
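Growth conditions: 96-well plates. Treatment: test compound, 48 hours, 5 concentrations. Analysis: linear interpolation between bracketing concentrations; unreached endpoints set to highest concentration. Abbreviation: GI50, concentration required for 50% inhibition of growth.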 The source made the active and inactive calls. No stated cut-off is given here; in the data, active = GI50 up to about 1.1 µM and inactive = higher.

Experiments:
Test in all cases: inhibition of tumour cell growth, NCI panel, 48 h
SK-MEL-28 = test system: SK-MEL-28
OVCAR-8 = test system: OVCAR-8
EKVX = test system: EKVX
NCI-H226 = test system: NCI-H226
UO-31 = test system: UO-31
HT-29 = test system: HT-29
OVCAR-5 = test system: OVCAR-5
HL-60 = test system: HL-60
COLO 205 = test system: COLO 205
NCI-H522 = test system: NCI-H522
SK-OV-3 = test system: SK-OV-3
786-0 = test system: 786-0
SNB-75 = test system: SNB-75
HOP-92 = test system: HOP-92
M14 = test system: M14
UACC-62 = test system: UACC-62
SF-539 = test system: SF-539
SN12C = test system: SN12C
DU-145 = test system: DU-145
U-251 = test system: U-251

Measured: GI50

Cc1cccc(NC(=S)N/N=C2\C(=O)Nc3ccccc32)c1
inactive: SK-MEL-28 16.1 µM | OVCAR-8 > 100 µM | EKVX 31.3 µM | NCI-H226 > 100 µM | UO-31 63.2 µM | HT-29 > 100 µM | OVCAR-5 > 100 µM | HL-60 67.8 µM | COLO 205 78.3 µM | NCI-H522 > 100 µM | SK-OV-3 > 100 µM | 786-0 59.4 µM | SNB-75 63.1 µM | HOP-92 > 100 µM | M14 60.8 µM | UACC-62 > 100 µM | SF-539 48.3 µM | SN12C 91.4 µM | DU-145 14.1 µM | U-251 61.8 µM

CC(CO)(CO)N1C(=O)C2C3C=CC(C3)C2C1=O (stereo not given)
inactive: SK-MEL-28 > 100 µM | OVCAR-8 > 100 µM | EKVX > 100 µM | NCI-H226 > 100 µM | UO-31 > 100 µM | HT-29 > 100 µM | OVCAR-5 > 100 µM | HL-60 > 100 µM | COLO 205 > 100 µM | NCI-H522 > 100 µM | SK-OV-3 > 100 µM | 786-0 > 100 µM | SNB-75 > 100 µM | HOP-92 > 100 µM | M14 > 100 µM | UACC-62 > 100 µM | SF-539 > 100 µM | SN12C > 100 µM | DU-145 > 100 µM | U-251 > 100 µM

CCn1c(SCC(=O)N/N=C/c2ccccc2)nc2ccccc2c1=O
inactive: SK-MEL-28 39.4 µM | OVCAR-8 16.3 µM | EKVX 26.3 µM | NCI-H226 10.8 µM | UO-31 29.9 µM | HT-29 4.06 µM | OVCAR-5 > 52 µM | HL-60 4.8 µM | COLO 205 8.34 µM | NCI-H522 3.7 µM | SK-OV-3 17.8 µM | 786-0 7.66 µM | SNB-75 12.8 µM | HOP-92 26.9 µM | M14 7.16 µM | UACC-62 5.52 µM | SF-539 10.4 µM | SN12C 13.1 µM | DU-145 48.2 µM | U-251 18.5 µM

COc1ccc2cc(CN3CCC(C4CCN(Cc5ccc6cc(OC)ccc6c5)CC4)CC3)ccc2c1
inactive: SK-MEL-28 2.21 µM | OVCAR-8 5.15 µM | EKVX 11.9 µM | NCI-H226 16.6 µM | UO-31 3.14 µM | HT-29 2.2 µM | OVCAR-5 21.8 µM | HL-60 2.33 µM | COLO 205 1.78 µM | NCI-H522 2.3 µM | SK-OV-3 26.3 µM | 786-0 2.06 µM | SNB-75 4.45 µM | HOP-92 2.37 µM | M14 2.33 µM | UACC-62 1.97 µM | SF-539 3.19 µM | SN12C 8.95 µM | DU-145 6.21 µM | U-251 2.52 µM

O=C(NS(=O)(=O)OCC(Cl)(Cl)Cl)SCCC(F)(F)C(F)(F)C(F)(F)C(F)(F)C(F)(F)C(F)(F)F
inactive: SK-MEL-28 22.7 µM | OVCAR-8 51.3 µM | EKVX 18.3 µM | NCI-H226 25.9 µM | UO-31 38 µM | HT-29 18.8 µM | OVCAR-5 18.6 µM | HL-60 23.1 µM | COLO 205 17.9 µM | NCI-H522 20 µM | SK-OV-3 17.7 µM | 786-0 35.6 µM | SNB-75 23.1 µM | HOP-92 10.4 µM | M14 23.1 µM | UACC-62 18.8 µM | SF-539 16.8 µM | SN12C 32.4 µM | DU-145 46.9 µM | U-251 23.6 µM

CSc1nc2c(c(=O)n1C)N=C(c1ccc(Cl)cc1)CC(c1ccccc1)N2 (stereo not given)
inactive: SK-MEL-28 47.8 µM | OVCAR-8 27.8 µM | EKVX 20.9 µM | NCI-H226 17.6 µM | UO-31 24.5 µM | HT-29 15.6 µM | OVCAR-5 33.8 µM | HL-60 29 µM | COLO 205 21.7 µM | NCI-H522 17.6 µM | SK-OV-3 29.4 µM | 786-0 31 µM | SNB-75 13.3 µM | HOP-92 33.8 µM | M14 17.5 µM | UACC-62 16.1 µM | SF-539 17.9 µM | SN12C 18.7 µM | DU-145 24.7 µM | U-251 40.8 µM

Oc1ccc(-c2nc3ccc4ccccc4c3c3c2CCCC3)c(O)c1
inactive: SK-MEL-28 19.2 µM | OVCAR-8 13.8 µM | EKVX 28.8 µM | NCI-H226 > 63 µM | UO-31 29.9 µM | HT-29 11.9 µM | OVCAR-5 20 µM | HL-60 2.55 µM | COLO 205 11.1 µM | NCI-H522 12.1 µM | SK-OV-3 48.6 µM | 786-0 11.7 µM | SNB-75 28.7 µM | HOP-92 24.7 µM | M14 15.2 µM | UACC-62 19.5 µM | SF-539 42.3 µM | SN12C 17.7 µM | DU-145 35.3 µM | U-251 4.1 µM

C=C1N(C)c2ccc(S(=O)(=O)c3ccc4c(c3)C(C)(C)C(=C)N4C)cc2C1(C)C
inactive: SK-MEL-28 > 100 µM | OVCAR-8 27.1 µM | EKVX 30.9 µM | NCI-H226 > 100 µM | UO-31 51.6 µM | HT-29 47 µM | OVCAR-5 83.9 µM | HL-60 27.3 µM | COLO 205 16.3 µM | NCI-H522 20.7 µM | SK-OV-3 > 100 µM | 786-0 58.5 µM | SNB-75 16.3 µM | HOP-92 3.85 µM | M14 31.2 µM | UACC-62 29.1 µM | SF-539 > 100 µM | SN12C 42.2 µM | DU-145 60 µM | U-251 31.5 µM

CC(C)=C[C@@H]1C[C@H](C)[C@H]2CC[C@H](C)[C@H]3C(=O)C(O)=C(C)C(=O)[C@]123
inactive: SK-MEL-28 > 100 µM | OVCAR-8 > 100 µM | EKVX > 100 µM | NCI-H226 87.3 µM | UO-31 > 100 µM | HT-29 > 100 µM | OVCAR-5 > 100 µM | HL-60 > 100 µM | COLO 205 > 100 µM | NCI-H522 48.1 µM | SK-OV-3 > 100 µM | 786-0 > 100 µM | SNB-75 > 100 µM | HOP-92 42.7 µM | M14 > 100 µM | UACC-62 > 100 µM | SF-539 > 100 µM | SN12C > 100 µM | DU-145 > 100 µM | U-251 > 100 µM
